# Several values for one entry are separate records, joined by “and”; a condition that tells them apart may be missing. Equal entries are not always repeated. Where a SMILES comes first, the peptide text is derived from it. Bridges are numbered along the chain shown (N, C = ends). The star is where a group is joined. X2 = CN(C)c1ccc2c(-c3cc(C(=O)*)ccc3C(=O)[O-])c3ccc(=[N+](C)C)cc-3oc2c1; X1 = C[N+]1=C(/C=C/C=C2/N(CCCCCC(=O)*)c3ccccc3C2(C)C)C(C)(C)c2ccccc21; BODIPY(FL) = CC1=CC(C)=[N+]2C1=Cc1ccc(CCC(=O)*)n1[B-]2(F)F
# How the values were obtained:
# [1] = molecular target: T1, rat α6/α3β4 nAChRs (Rattus norvegicus, UniProt P04757+P12392+P43143); format: cell-based
# T1 construct: expressed in transfected cells; host or cells: Xenopus laevis oocytes injected with cRNA; plasmids from J. Michael McIntosh (University of Utah)
# T1 sequence (P43143+P04757 fused with the stated changes): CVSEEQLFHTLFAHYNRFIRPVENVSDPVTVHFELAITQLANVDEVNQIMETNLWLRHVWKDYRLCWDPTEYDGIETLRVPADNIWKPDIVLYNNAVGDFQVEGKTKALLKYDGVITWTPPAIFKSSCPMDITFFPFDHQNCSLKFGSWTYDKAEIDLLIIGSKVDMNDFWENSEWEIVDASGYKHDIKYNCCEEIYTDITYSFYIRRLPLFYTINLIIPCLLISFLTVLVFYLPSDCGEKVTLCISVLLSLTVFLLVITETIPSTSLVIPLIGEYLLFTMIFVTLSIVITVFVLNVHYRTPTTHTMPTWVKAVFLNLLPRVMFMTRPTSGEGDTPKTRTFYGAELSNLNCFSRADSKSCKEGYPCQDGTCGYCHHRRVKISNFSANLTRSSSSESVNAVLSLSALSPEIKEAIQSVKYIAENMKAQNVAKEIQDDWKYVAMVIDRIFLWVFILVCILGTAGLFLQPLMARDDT
# T1 sequence (P12392 21-495): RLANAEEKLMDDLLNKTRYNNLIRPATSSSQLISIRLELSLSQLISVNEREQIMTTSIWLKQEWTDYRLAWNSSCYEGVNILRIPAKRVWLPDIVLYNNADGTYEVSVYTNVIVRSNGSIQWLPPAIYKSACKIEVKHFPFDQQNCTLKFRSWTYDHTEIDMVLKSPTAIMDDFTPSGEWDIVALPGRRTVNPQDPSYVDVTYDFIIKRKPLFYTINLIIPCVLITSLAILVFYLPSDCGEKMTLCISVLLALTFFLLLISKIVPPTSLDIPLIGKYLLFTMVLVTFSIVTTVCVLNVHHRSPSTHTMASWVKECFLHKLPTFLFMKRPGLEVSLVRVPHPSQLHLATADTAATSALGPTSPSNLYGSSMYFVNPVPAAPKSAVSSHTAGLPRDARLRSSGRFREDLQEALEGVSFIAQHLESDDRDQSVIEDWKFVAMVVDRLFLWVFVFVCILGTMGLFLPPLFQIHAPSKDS
# [2] = molecular target: T2, rat α3β2 nAChR (Rattus norvegicus, UniProt P04757+P12390); experiment: cell-based
# T2 construct: expressed in transfected cells; host or cells: Xenopus laevis oocytes injected with cRNA; plasmids from J. Michael McIntosh (University of Utah)
# T2 sequence (P04757 26-499 limits assumed): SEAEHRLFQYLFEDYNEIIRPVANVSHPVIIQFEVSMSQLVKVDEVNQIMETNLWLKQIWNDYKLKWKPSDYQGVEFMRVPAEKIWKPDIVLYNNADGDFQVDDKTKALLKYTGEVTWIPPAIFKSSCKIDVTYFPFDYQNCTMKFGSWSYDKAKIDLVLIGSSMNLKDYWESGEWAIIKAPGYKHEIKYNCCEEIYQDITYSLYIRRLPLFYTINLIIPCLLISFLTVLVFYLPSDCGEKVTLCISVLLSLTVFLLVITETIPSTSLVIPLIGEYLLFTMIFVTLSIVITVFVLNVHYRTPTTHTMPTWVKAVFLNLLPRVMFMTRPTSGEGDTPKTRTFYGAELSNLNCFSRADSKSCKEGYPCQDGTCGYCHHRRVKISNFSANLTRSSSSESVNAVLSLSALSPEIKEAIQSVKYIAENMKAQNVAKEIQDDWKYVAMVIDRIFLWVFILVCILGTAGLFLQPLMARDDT
# T2 sequence (P12390 25-500 limits assumed): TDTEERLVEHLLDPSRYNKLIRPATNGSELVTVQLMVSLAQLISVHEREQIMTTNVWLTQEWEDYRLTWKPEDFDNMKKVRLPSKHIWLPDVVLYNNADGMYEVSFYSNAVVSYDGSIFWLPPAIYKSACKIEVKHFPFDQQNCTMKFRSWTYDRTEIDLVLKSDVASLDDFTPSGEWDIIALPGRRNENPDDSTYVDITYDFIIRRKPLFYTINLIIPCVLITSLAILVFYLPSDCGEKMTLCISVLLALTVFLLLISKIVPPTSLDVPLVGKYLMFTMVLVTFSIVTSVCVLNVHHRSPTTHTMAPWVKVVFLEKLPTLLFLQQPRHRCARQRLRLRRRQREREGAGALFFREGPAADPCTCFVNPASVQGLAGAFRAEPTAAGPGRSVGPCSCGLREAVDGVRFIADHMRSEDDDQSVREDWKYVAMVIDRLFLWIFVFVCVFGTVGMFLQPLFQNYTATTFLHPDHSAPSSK
# [3] = molecular target: T3, rat α7 nAChRs (Rattus norvegicus, UniProt Q05941); experiment: cell-based; format: cell-based
# T3 construct: expressed in transfected cells; host or cells: Xenopus laevis oocytes injected with cRNA; plasmids from J. Michael McIntosh (University of Utah)
# T3 sequence (Q05941 23-502): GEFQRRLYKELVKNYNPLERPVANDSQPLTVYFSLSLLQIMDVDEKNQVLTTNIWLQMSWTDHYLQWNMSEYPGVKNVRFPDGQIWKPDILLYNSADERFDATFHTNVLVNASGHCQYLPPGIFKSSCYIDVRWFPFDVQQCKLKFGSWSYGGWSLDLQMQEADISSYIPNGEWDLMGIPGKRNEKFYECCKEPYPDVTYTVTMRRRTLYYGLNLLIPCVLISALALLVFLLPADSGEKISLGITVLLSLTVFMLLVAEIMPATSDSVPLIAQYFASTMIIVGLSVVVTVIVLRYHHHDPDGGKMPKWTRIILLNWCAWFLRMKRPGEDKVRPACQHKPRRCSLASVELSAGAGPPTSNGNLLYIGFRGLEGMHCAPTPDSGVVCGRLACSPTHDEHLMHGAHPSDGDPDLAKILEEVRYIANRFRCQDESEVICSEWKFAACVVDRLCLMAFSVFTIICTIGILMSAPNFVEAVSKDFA
# [4] = not given; remark: listed apart in the source
# [5] = molecular target: T4, α7 nAChRs in rat brain slices (Rattus norvegicus, UniProt Q05941)
# T4 construct: from tissue; host or cells: frozen brain slices of ten-week-old rats (hippocampus, striatum, cortex, cerebellum)
# T4 sequence (Q05941 23-502): as above
SMILES,inhibition rate [1] [%],inhibition rate [2] [%],IC50 [2],excitation wavelength (Ex) [nm],IC50 [3] [nM],inhibition rate of ACh-evoked current [3] [%],emission wavelength (Em) [4] [nm],fluorescence labelling of brain regions [5],Hill Slope [3],time to ~90% current restoration after block (recovery/washout) [3] [min]
"CC1=CC(C)=[N+]2C1=Cc1ccc(CCC(=O)NCC(=O)N[C@H]3CSSC[C@@H]4NC(=O)[C@@H]5CCCN5C(=O)[C@@H]5CCCN5C(=O)[C@H](CC(N)=O)NC(=O)[C@H](CO)NC(=O)[C@H](CSSC[C@@H](C(N)=O)NC(=O)[C@H](Cc5c[nH]cn5)NC(=O)[C@H](CCC(=O)O)NC(=O)[C@H](Cc5c[nH]cn5)NC(=O)[C@H](C)NC4=O)NC3=O)n1[B-]2(F)F [LvIB-B] ({BODIPY(FL)}-GCCSNPPCAHEHC-NH2; disulfide 2-8, 3-13)",0 ± 2,64 ± 4,2.55 µM and 10.9 µM,505,187,96 ± 0.11,510,,,
"C[C@@H]1NC(=O)[C@@H]2CSSC[C@H](NC(=O)CNC(=O)CCCCCN3/C(=C/C=C/C4=[N+](C)c5ccccc5C4(C)C)C(C)(C)c4ccccc43)C(=O)N[C@@H](CSSC[C@@H](C(N)=O)NC(=O)[C@H](Cc3c[nH]cn3)NC(=O)[C@H](CCC(=O)O)NC(=O)[C@H](Cc3c[nH]cn3)NC1=O)C(=O)N[C@@H](CO)C(=O)N[C@@H](CC(N)=O)C(=O)N1CCC[C@H]1C(=O)N1CCC[C@H]1C(=O)N2 [LvIB-C] (X1-GCCSNPPCAHEHC-NH2; disulfide 2-8, 3-13)",10 ± 0.3,50 ± 2,10.9 µM and 2.55 µM,550,298,94 ± 0.20,570,"distinct fluorescence distribution in the hippocampus, striatum, and cortex",1.39 (1.05–1.72),≤ 14
"C[C@@H]1NC(=O)[C@@H]2CSSC[C@H](NC(=O)CNC(=O)c3ccc(C(=O)[O-])c(-c4c5ccc(=[N+](C)C)cc-5oc5cc(N(C)C)ccc45)c3)C(=O)N[C@@H](CSSC[C@@H](C(N)=O)NC(=O)[C@H](Cc3c[nH]cn3)NC(=O)[C@H](CCC(=O)O)NC(=O)[C@H](Cc3c[nH]cn3)NC1=O)C(=O)N[C@@H](CO)C(=O)N[C@@H](CC(N)=O)C(=O)N1CCC[C@H]1C(=O)N1CCC[C@H]1C(=O)N2 [LvIB-R] (X2-GCCSNPPCAHEHC-NH2; disulfide 2-8, 3-13)",,,,555,643,87 ± 0.24,580,"distinct fluorescence distribution in the hippocampus, striatum, and cortex",0.89 (0.67–1.14),≤ 14

# Source: PMC11122421 (Marine Drugs, 2024)
